Experimental data: ChEMBL document CHEMBL1141242, “Estrogen receptor beta selective ligands: discovery and SAR of novel heterocyclic ligands” (Bioorg Med Chem Lett, 2005)
pEC50, pIC50: −log10 of the molar value.

How the values were obtained:
[1] = biological target: Estrogen receptor beta (Homo sapiens, UniProt Q92731); assay: biochemical
[2] = biological target: T1, Estrogen receptor (Homo sapiens, UniProt P03372); assay: biochemical
T1 sequence (P03372 whole entry): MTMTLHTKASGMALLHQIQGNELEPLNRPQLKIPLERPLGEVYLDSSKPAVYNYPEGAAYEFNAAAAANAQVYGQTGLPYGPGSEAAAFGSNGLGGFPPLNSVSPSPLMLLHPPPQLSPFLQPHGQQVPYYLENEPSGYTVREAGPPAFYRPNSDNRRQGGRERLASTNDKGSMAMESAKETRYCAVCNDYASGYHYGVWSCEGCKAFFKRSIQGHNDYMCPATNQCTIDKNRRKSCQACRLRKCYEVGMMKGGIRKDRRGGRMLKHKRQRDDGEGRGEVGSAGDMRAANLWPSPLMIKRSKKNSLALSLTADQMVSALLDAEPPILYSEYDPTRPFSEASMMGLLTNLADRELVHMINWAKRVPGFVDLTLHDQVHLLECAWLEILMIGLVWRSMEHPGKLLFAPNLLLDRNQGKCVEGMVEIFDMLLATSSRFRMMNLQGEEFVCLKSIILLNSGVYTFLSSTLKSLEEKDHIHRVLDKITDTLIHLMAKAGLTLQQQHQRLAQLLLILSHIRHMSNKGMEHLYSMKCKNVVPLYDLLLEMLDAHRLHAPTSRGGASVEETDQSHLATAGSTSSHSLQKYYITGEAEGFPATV

[3] = biological target: Estrogen receptor beta (Rattus norvegicus, UniProt Q62986)
Description: Effect on ERbeta in rat ovary granulosa cell line transfected with ER responsive luciferase reporter

[4] = biological target: T1, Estrogen receptor
Description: Effect on ERalpha in MCF7 cell line transfected with ER responsive luciferase reporter

Chain of Estrogen receptor beta (Rattus norvegicus, UniProt Q62986) (Q62986 whole entry): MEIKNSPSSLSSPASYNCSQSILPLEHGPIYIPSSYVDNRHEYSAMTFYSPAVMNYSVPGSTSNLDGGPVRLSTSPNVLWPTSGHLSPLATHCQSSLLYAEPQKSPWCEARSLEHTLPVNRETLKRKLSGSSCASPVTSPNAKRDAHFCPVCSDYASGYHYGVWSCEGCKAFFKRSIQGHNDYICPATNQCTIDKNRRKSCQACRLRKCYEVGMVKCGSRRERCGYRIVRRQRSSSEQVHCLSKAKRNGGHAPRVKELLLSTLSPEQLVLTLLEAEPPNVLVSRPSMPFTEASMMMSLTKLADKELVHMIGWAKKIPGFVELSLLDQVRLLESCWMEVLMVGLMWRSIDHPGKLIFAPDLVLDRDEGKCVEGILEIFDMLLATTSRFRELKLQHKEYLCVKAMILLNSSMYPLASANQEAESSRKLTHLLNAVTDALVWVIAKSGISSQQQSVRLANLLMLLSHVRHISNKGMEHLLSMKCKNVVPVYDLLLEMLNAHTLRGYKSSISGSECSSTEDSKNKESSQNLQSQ
Chain of Estrogen receptor beta (Homo sapiens, UniProt Q92731) (Q92731 whole entry): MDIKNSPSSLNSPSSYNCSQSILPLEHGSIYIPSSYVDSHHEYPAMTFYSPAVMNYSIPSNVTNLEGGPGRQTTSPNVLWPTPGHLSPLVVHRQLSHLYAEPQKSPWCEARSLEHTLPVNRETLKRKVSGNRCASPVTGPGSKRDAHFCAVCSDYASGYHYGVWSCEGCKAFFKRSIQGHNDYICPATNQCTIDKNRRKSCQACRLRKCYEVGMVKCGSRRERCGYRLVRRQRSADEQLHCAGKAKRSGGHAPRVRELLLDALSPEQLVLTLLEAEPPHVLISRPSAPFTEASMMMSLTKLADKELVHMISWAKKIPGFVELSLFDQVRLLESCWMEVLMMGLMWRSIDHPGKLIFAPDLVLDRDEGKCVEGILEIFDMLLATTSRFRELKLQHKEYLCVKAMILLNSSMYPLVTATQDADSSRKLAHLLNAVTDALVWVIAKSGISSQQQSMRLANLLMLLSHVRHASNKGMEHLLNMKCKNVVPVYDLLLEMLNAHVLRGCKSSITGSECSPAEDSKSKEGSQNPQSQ

Compound	pIC50 [1]	pIC50 [2]	pEC50 [3]	pEC50 [4]
Oc1ccc(-n2c(-c3ccccc3Cl)nc3ccccc32)cc1	6.83	5.76		
Oc1ccc(-c2[nH]c3ccccc3c2-c2ccc(O)cc2)cc1	7.92	7.02		
Oc1ccc(-c2noc(C(F)(F)F)c2-c2ccccc2)cc1	8.62	8.07		
Oc1ccc(-n2c(-c3cccs3)nc3ccccc32)cc1	7.30	< 5.20		
Cc1nocc1-c1nc2ccccc2n1-c1ccc(O)cc1	7.84	5.94		
Oc1ccc(-n2c(-c3ccccc3)nc3ccccc32)cc1	6.86	5.74		

More lines, in order of rising pIC50 [1], values ahead:

pIC50 [1]	pIC50 [2]	pEC50 [3]	pEC50 [4]	Compound
6.45	5.08			Oc1ccc(-c2[nH]c3ccccc3c2-c2ccccc2)cc1
6.77	5.16			c1ccc(-c2[nH]c3ccccc3c2-c2ccccc2)cc1
7.55	5.53	7.39	< 6.00	Cn1cccc1-c1nc2ccccc2n1-c1ccc(O)cc1
7.82	6.39	8.17	6.61	Oc1ccc(-c2[nH]c(C(F)(F)F)nc2-c2ccccc2)cc1
8.95	7.62	8.96	7.41	Oc1ccc(-c2c(-c3ccccc3)[nH]c3ccccc23)cc1
